Source: PubChem BioAssay (NCI)
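Assay format: 96-well plates, 48-hour exposure. Definition used: TGI = concentration required for complete inhibition of growth.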

Columns and labels:
Assay in all cases: NCI-60 cell line screen, 48 h
UACC-257 melanoma = test system: UACC-257 melanoma
SK-MEL-5 melanoma = test system: SK-MEL-5 melanoma
MDA-MB-435 = test system: MDA-MB-435
RXF 393 renal = test system: RXF 393 renal
MCF7 breast = test system: MCF7 breast
CAKI-1 renal = test system: CAKI-1 renal
M14 melanoma = test system: M14 melanoma
HT29 colon = test system: HT29 colon
NCI-H522 lung = test system: NCI-H522 lung
EKVX NSCLC = test system: EKVX NSCLC
SF-539 CNS = test system: SF-539 CNS
SR leukemia = test system: SR leukemia
IGROV1 ovarian = test system: IGROV1 ovarian
ACHN renal = test system: ACHN renal
MDA-N = test system: MDA-N
A498 renal = test system: A498 renal
MOLT-4 leukemia = test system: MOLT-4 leukemia
SK-MEL-28 melanoma = test system: SK-MEL-28 melanoma
PC-3 prostate = test system: PC-3 prostate
SK-OV-3 ovarian = test system: SK-OV-3 ovarian
COLO 205 colon = test system: COLO 205 colon
HS 578T breast = test system: HS 578T breast
HL-60(TB) leukemia = test system: HL-60(TB) leukemia
MDA-MB-231 breast = test system: MDA-MB-231 breast
OVCAR-8 ovarian = test system: OVCAR-8 ovarian
HCT-15 colon = test system: HCT-15 colon
SF-268 CNS = test system: SF-268 CNS
U251 CNS = test system: U251 CNS
UACC-62 melanoma = test system: UACC-62 melanoma
T-47D breast = test system: T-47D breast
NCI-H460 lung = test system: NCI-H460 lung
SW-620 colon = test system: SW-620 colon
CCRF-CEM leukemia = test system: CCRF-CEM leukemia
MALME-3M melanoma = test system: MALME-3M melanoma
OVCAR-5 ovarian = test system: OVCAR-5 ovarian
KM12 colon = test system: KM12 colon
786-0 renal = test system: 786-0 renal
RPMI-8226 leukemia = test system: RPMI-8226 leukemia
NCI-H23 lung = test system: NCI-H23 lung
OVCAR-4 ovarian = test system: OVCAR-4 ovarian
HCC-2998 colon = test system: HCC-2998 colon
SK-MEL-2 melanoma = test system: SK-MEL-2 melanoma
HOP-92 NSCLC = test system: HOP-92 NSCLC
SF-295 CNS = test system: SF-295 CNS
K-562 leukemia = test system: K-562 leukemia
A549 NSCLC = test system: A549 NSCLC
LOX IMVI melanoma = test system: LOX IMVI melanoma
DU-145 prostate = test system: DU-145 prostate
SN12C renal = test system: SN12C renal
HOP-62 NSCLC = test system: HOP-62 NSCLC
HCT-116 colon = test system: HCT-116 colon
NCI-H226 lung = test system: NCI-H226 lung
NCI/ADR-RES ovarian = test system: NCI/ADR-RES ovarian
SNB-75 CNS = test system: SNB-75 CNS

Compound: CCOC(=O)c1c(SCc2ccccc2)nc2c3ccccc3ccn12
- TGI (UACC-257 melanoma): > 100 µM
- TGI (SK-MEL-5 melanoma): > 100 µM
- TGI (MDA-MB-435): > 100 µM
- TGI (RXF 393 renal): > 100 µM
- TGI (MCF7 breast): > 100 µM
- TGI (CAKI-1 renal): > 100 µM
- TGI (M14 melanoma): > 100 µM
- TGI (HT29 colon): > 100 µM
- TGI (NCI-H522 lung): > 100 µM
- TGI (EKVX NSCLC): > 100 µM
- TGI (SF-539 CNS): > 100 µM
- TGI (SR leukemia): > 100 µM
- TGI (IGROV1 ovarian): > 100 µM
- TGI (ACHN renal): > 100 µM
- TGI (MDA-N): > 100 µM
- TGI (A498 renal): > 100 µM
- TGI (MOLT-4 leukemia): > 100 µM
- TGI (SK-MEL-28 melanoma): > 100 µM
- TGI (PC-3 prostate): > 100 µM
- TGI (SK-OV-3 ovarian): > 100 µM
- TGI (COLO 205 colon): > 100 µM
- TGI (HS 578T breast): 58.3 µM
- TGI (HL-60(TB) leukemia): > 100 µM
- TGI (MDA-MB-231 breast): > 100 µM
- TGI (OVCAR-8 ovarian): > 100 µM
- TGI (HCT-15 colon): > 100 µM
- TGI (SF-268 CNS): > 100 µM
- TGI (U251 CNS): > 100 µM
- TGI (UACC-62 melanoma): > 100 µM
- TGI (T-47D breast): > 100 µM
- TGI (NCI-H460 lung): > 100 µM
- TGI (SW-620 colon): > 100 µM
- TGI (CCRF-CEM leukemia): > 100 µM
- TGI (MALME-3M melanoma): > 100 µM
- TGI (OVCAR-5 ovarian): > 100 µM
- TGI (KM12 colon): > 100 µM
- TGI (786-0 renal): > 100 µM
- TGI (RPMI-8226 leukemia): > 100 µM
- TGI (NCI-H23 lung): > 100 µM
- TGI (OVCAR-4 ovarian): > 100 µM
- TGI (HCC-2998 colon): > 100 µM
- TGI (SK-MEL-2 melanoma): > 100 µM
- TGI (HOP-92 NSCLC): 27.5 µM
- TGI (SF-295 CNS): > 100 µM
- TGI (K-562 leukemia): > 100 µM
- TGI (A549 NSCLC): > 100 µM
- TGI (LOX IMVI melanoma): > 100 µM
- TGI (DU-145 prostate): > 100 µM
- TGI (SN12C renal): > 100 µM
- TGI (HOP-62 NSCLC): > 100 µM
- TGI (HCT-116 colon): > 100 µM
- TGI (NCI-H226 lung): > 100 µM
- TGI (NCI/ADR-RES ovarian): > 100 µM
- TGI (SNB-75 CNS): > 100 µM
